Columns and labels:
Type in all cases: in vivo
Matricaria inodora = assay: Post-emergence herbicidal action; conditions: rated visually after about 3 weeks vs untreated controls
How it was run: (§1)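 Greenhouse-grown plants in sandy loam treated at one-leaf stage, 2–3 weeks after sowing, with WP or EC formulations sprayed as aqueous suspension/emulsion plus 0.5% additive at 600 l/ha water; rates 20 g/ha and less. Visual rating after about 3 weeks versus untreated controls (100% = plants dead, 0% = like control).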

Digitaria sanguinalis = assay: Post-emergence herbicidal action; conditions: rated visually after about 3 weeks vs untreated controls
How it was run: as §1

Polygonum convolvulus = assay: Post-emergence herbicidal action; conditions: application rate 5 g/ha
How it was run: as §1

Veronica persica = assay: Post-emergence herbicidal action
How it was run: as §1

Avena fatua = assay: Post-emergence herbicidal action; conditions: rated visually after about 3 weeks vs untreated controls
How it was run: as §1

Stellaria media = assay: Post-emergence herbicidal action; conditions: application rate 5 g/ha, rated visually after about 3 weeks vs untreated controls
How it was run: as §1

Abutilon theophrasti = assay: Post-emergence herbicidal action; conditions: rated visually after about 3 weeks vs untreated controls
How it was run: as §1

Alopecurus myosuroides = assay: Post-emergence herbicidal action; conditions: rated visually after about 3 weeks vs untreated controls
How it was run: as §1

Echinochloa crus-galli = assay: Post-emergence herbicidal action; conditions: rated visually after about 3 weeks vs untreated controls
How it was run: as §1

Hordeum murinum = assay: Post-emergence herbicidal action
How it was run: as §1

Amaranthus retroflexus = assay: Post-emergence herbicidal action; conditions: rated visually after about 3 weeks vs untreated controls
How it was run: as §1

Viola tricolor = assay: Post-emergence herbicidal action; conditions: application rate 5 g/ha
How it was run: as §1

Pharbitis purpurea = assay: Post-emergence herbicidal action; conditions: application rate 5 g/ha, rated visually after about 3 weeks vs untreated controls
How it was run: as §1

Lolium rigidum = assay: Post-emergence herbicidal action; conditions: rated visually after about 3 weeks vs untreated controls
How it was run: as §1

Setaria viridis = assay: Post-emergence herbicidal action; conditions: application rate 5 g/ha, rated visually after about 3 weeks vs untreated controls
How it was run: as §1

Oryza sativa = assay: Post-emergence crop plant compatibility; conditions: application rate 5 g/ha
Protocol: a. Post-Emergence Herbicidal Action and Crop Plant Compatibility
Seeds of monocotyledonous and dicotyledonous weeds and crop plants were placed in sandy loam in plastic or wood-fiber pots, covered with soil and cultivated in a greenhouse under controlled growth conditions. 2 to 3 weeks after sowing, the test plants were treated at the one-leaf stage. The compounds of the invention, formulated in the form of wettable powders (WP) or as emulsion concentrates (EC), were then sprayed onto the green parts of the plants as aqueous suspension or emulsion with addition of 0.5% additive at a water application rate of 600 l/ha (converted). After the test plants had been kept in the greenhouse under optimum growth conditions for about 3 weeks, the activity of the preparations was rated visually in comparison to untreated controls. For example, 100% activity=the plants have died, 0% activity=like control plants.
Tables A16 to A19 below show the crop plant compatibilities of selected compounds of the general formula (I) according to Tables I.1 to I.36 at an application rate corresponding to 5 g/ha or 20 g/ha, which were obtained in experiments according to the experimental procedure mentioned above. Here, the observed effects on selected crop plants are stated in comparison to the untreated controls (values in %).

Compound | Matricaria inodora (efficacy in %) (Matricaria inodora; application rate 5 g/ha) | Digitaria sanguinalis (efficacy in %) (Digitaria sanguinalis; application rate 20 g/ha) | Polygonum convolvulus (efficacy in %) (Polygonum convolvulus) | Veronica persica (efficacy in %) (Veronica persica; application rate 5 g/ha) | Avena fatua (efficacy in %) (Avena fatua; application rate 20 g/ha) | Stellaria media (efficacy in %) (Stellaria media) | Alopecurus myosuroides (efficacy in %) (Alopecurus myosuroides; application rate 20 g/ha) | Hordeum murinum (efficacy in %) (Hordeum murinum; application rate 5 g/ha) | Viola tricolor (efficacy in %) (Viola tricolor) | Pharbitis purpurea (efficacy in %) (Pharbitis purpurea) | Lolium rigidum (efficacy in %) (Lolium rigidum; application rate 20 g/ha) | Setaria viridis (efficacy in %) (Setaria viridis) | Digitaria sanguinalis (efficacy in %) (Digitaria sanguinalis; application rate 5 g/ha) | Abutilon theophrasti (efficacy in %) (Abutilon theophrasti; application rate 5 g/ha) | Alopecurus myosuroides (efficacy in %) (Alopecurus myosuroides; application rate 5 g/ha) | Echinochloa crus-galli (efficacy in %) (Echinochloa crus-galli; application rate 5 g/ha) | Hordeum murinum (efficacy in %) (Hordeum murinum; application rate 20 g/ha) | Amaranthus retroflexus (efficacy in %) (Amaranthus retroflexus; application rate 5 g/ha) | Avena fatua (efficacy in %) (Avena fatua; application rate 5 g/ha) | further results
COCCOC(=O)COc1ncccc1Sc1cc(-n2c(=O)cc(C(F)(F)F)n(C)c2=O)c(F)cc1Cl [I.1-1, 2-Methoxyethyl {[3-({2-chloro-4-fluoro-5-[3-methyl-2,6-dioxo-4-(trifluoromethyl)-3,6-dihydropyrimidin-1(2H)-yl]phenyl}sulfanyl)pyridin-2-yl]oxy}acetate] | 100% | 100% | 100% | 100% | 80% | 90% | 80% | 80% | 100% | 100% | 80% | 100% | – | – | – | – | – | – | – | Abutilon theophrasti (efficacy in %) (Abutilon theophrasti; application rate 20 g/ha): 100%; Echinochloa crus-galli (efficacy in %) (Echinochloa crus-galli; application rate 20 g/ha): 100%; Amaranthus retroflexus (efficacy in %) (Amaranthus retroflexus; application rate 20 g/ha): 100%
Cn1c(C(F)(F)F)cc(=O)n(-c2cc(Sc3cccnc3OCC(=O)OCC3CCCO3)c(Cl)cc2F)c1=O (stereo not shown) [I.1-71] | 100% | – | 100% | 100% | 80% | 100% | – | – | 100% | 100% | – | 100% | 100% | 100% | 80% | 100% | 80% | 100% | – | Lolium rigidum (efficacy in %) (Lolium rigidum; application rate 5 g/ha): 100%
Cn1c(C(F)(F)F)cc(=O)n(-c2cc(Sc3cccnc3SCC(=O)OC3COC3)c(Cl)cc2F)c1=O [I.10-115] | 90% | 100% | 100% | – | – | 100% | 80% | – | 100% | 100% | – | 100% | – | 100% | – | – | 80% | 100% | – | Oryza sativa (efficacy in %) (Oryza sativa): 20%; Veronica persica (efficacy in %) (Veronica persica; application rate 20 g/ha): 100%; Echinochloa crus-galli (efficacy in %) (Echinochloa crus-galli; application rate 20 g/ha): 100%
Cn1c(C(F)(F)F)cc(=O)n(-c2cc(Sc3cccnc3SCC(=O)OCC#N)c(Cl)cc2F)c1=O [I.10-176] | – | 100% | 100% | – | – | 100% | – | – | 100% | 90% | – | 100% | – | – | 80% | 100% | 80% | – | – | Oryza sativa (efficacy in %) (Oryza sativa): 20%; Matricaria inodora (efficacy in %) (Matricaria inodora; application rate 20 g/ha): 100%; Veronica persica (efficacy in %) (Veronica persica; application rate 20 g/ha): 80%; Abutilon theophrasti (efficacy in %) (Abutilon theophrasti; application rate 20 g/ha): 100%; Amaranthus retroflexus (efficacy in %) (Amaranthus retroflexus; application rate 20 g/ha): 100%
COCCOC(=O)COc1ncccc1Oc1cc(-n2c(=O)cc(C(F)(F)F)n(C)c2=O)c(F)cc1Cl [I.15-1] | 100% | – | 100% | 100% | – | 100% | – | – | 100% | 100% | 100% | 100% | 100% | 100% | 80% | 100% | 100% | 100% | 90% | –
COCCOCCOC(=O)COc1ncccc1Oc1cc(-n2c(=O)cc(C(F)(F)F)n(C)c2=O)c(F)cc1Cl [I.15-23] | 90% | – | 100% | 100% | – | 100% | 100% | 80% | 100% | 100% | – | 100% | 100% | 100% | – | 100% | – | 100% | 80% | Lolium rigidum (efficacy in %) (Lolium rigidum; application rate 5 g/ha): 80%
Cn1c(C(F)(F)F)cc(=O)n(-c2cc(Oc3cccnc3OCC(=O)OCC3CCCO3)c(Cl)cc2F)c1=O (stereo not shown) [I.15-71] | – | – | 100% | 100% | 80% | 100% | – | – | 100% | 100% | 100% | 100% | 100% | 100% | 90% | 100% | 100% | 100% | – | Matricaria inodora (efficacy in %) (Matricaria inodora; application rate 20 g/ha): 100%
Cn1c(C(F)(F)F)cc(=O)n(-c2cc(Oc3cccnc3OCC(=O)OCC3CCOC3)c(Cl)cc2F)c1=O (stereo not shown) [I.15-72, Tetrahydrofuran-3-ylmethyl [(3-{2-chloro-4-fluoro-5-[3-methyl-2,6-dioxo-4-(trifluoromethyl)-3,6-dihydropyrimidin-1(2H)-yl]phenoxy}pyridin-2-yl)oxy]acetate] | 90% | – | 100% | 100% | – | 100% | – | 90% | 100% | 100% | 100% | 100% | 100% | 100% | 90% | 100% | – | 100% | 80% | –
